Assay results reported in patent US8193185B2, “Use of tryptanthrin compounds for immune potentiation” (Novartis Vaccines and Diagnostics, Inc., priority 2003, dated 2012).

System: human peripheral blood mononuclear cells (PBMC)
Test: HTS assay for small molecule immune potentiators: TNF-a production by human PBMC (sandwich ELISA)
Format: cell-based
Settings: human PBMC 500,000 per mL, 18 h at 37° C., secreted TNF by sandwich ELISA
Text: Candidate small molecule immune potentiators can be identified in vitro. Compounds are screened in vitro for their ability to stimulate human peripheral blood mononuclear cells to produce cytokines (e.g. TNF-a and IL-12 p40). Apoptosis inducing small molecules may be identified having this activity. These small molecule immunopotentiators have potential utility as adjuvants and immunotherapeutics.
In an assay procedure (High Throughput Screening (HTS)) for small molecule immune potentiators (SMIPs), human peripheral blood mononuclear cells (PBMC), 500,000 per mL in RPMI 1640 medium with 10% FCS, are distributed in 96 well plates (100,000 per well) already containing 5 μM of compound in DMSO. The PBMCs are incubated for 18 h at 37° C. in 5% CO2. Their ability to produce cytokines in response to the small molecule compounds is determined using a modified sandwich ELISA.
Briefly supernatants from the PBMC cultures are assayed for secreted TNF using a primary plate bound antibody for capture followed by a secondary biotinylated anti-TNF antibody forming a sandwich. The biotinylated second antibody is then detected using streptavidin-Europium and the amount of bound europium is determined by time resolved fluorescence. Compounds are screened for their TNF inducing activity that is measured in the assay as increased Europim counts over cells incubated in RPMI medium alone. “Hits” are selected based on their TNF-inducing activity relative to an optimal dose of lipopolysaccaride LPS (1 μg/ml), a strong TNF inducer. The robustness of the assay and low backgrounds have allowed for the routine selection of hits with ˜10% of LPS activity that is normally between 5-10× background (cells alone). Selected hits are then subjected to confirmation for their ability to induce cytokines from multiple donors at decreasing concentrations. Those compounds with consistent activity at or below 5 μM are considered confirmed for the purposes of this assay. The assay is readily modified for screening for compounds effective at higher or lower concentrations.

Compound | minimal effective concentration [µM]
O=C1c2cc([N+](=O)[O-])ccc2-n2c1nc1ccccc1c2=O [Compound 1001, 8-nitroindolo[2,1-b]quinazoline-6,12-dione] | ≤ 1.5
O=C1c2cc(F)ccc2-n2c1nc1ccc(Cl)cc1c2=O [Compound 1002, 2-chloro-8-fluoroindolo[2,1-b]quinazoline-6,12-dione] | ≥ 5
O=C1c2cc(F)ccc2-n2c1nc1ccc(F)cc1c2=O [Compound 1003, 2,8-difluoroindolo[2,1-b]quinazoline-6,12-dione] | ≥ 5
O=C1c2cc(F)ccc2-n2c1nc1cc(F)ccc1c2=O [Compound 1004, 3,8-difluoroindolo[2,1-b]quinazoline-6,12-dione] | ≤ 1.5
O=C1c2cccc(F)c2-n2c1nc1ccccc1c2=O [Compound 1005, 10-fluoroindolo[2,1-b]quinazoline-6,12-dione] | ≤ 1.5
O=C1c2cc(F)ccc2-n2c1nc1cccc(F)c1c2=O [Compound 1006, 1,8-difluoroindolo[2,1-b]quinazoline-6,12-dione] | ≤ 1.5
Cc1cccc2nc3n(c(=O)c12)-c1ccc(F)cc1C3=O [Compound 1007, 8-fluoro-1-methylindolo[2,1-b]quinazoline-6,12-dione] | ≤ 1.5
O=C1c2cc(F)cc(F)c2-n2c1nc1ccccc1c2=O [Compound 1008, 8,10-difluoroindolo[2,1-b]quinazoline-6,12-dione] | ≤ 1.5
O=C1c2cc(F)ccc2-n2c1nc1c(F)cccc1c2=O [Compound 1009, 4,8-difluoroindolo[2,1-b]quinazoline-6,12-dione] | ≥ 5
O=C1c2cc(I)ccc2-n2c1nc1c(Br)cc(Br)cc1c2=O [Compound 1010, 2,4-dibromo-8-iodoindolo[2,1-b]quinazoline-6,12-dione] | ≥ 5
Cc1cc(Cl)cc2c1-n1c(nc3ccccc3c1=O)C2=O [Compound 1011, 8-chloro-10-methylindolo[2,1-b]quinazoline-6,12-dione] | ≥ 5
CC(C)(C)OC(=O)N1CCN(c2cc3nc4n(c(=O)c3cc2F)-c2ccc(I)cc2C4=O)CC1 [Compound 1012, 1,1-dimethylethyl 4-(2-fluoro-8-iodo-6,12-dioxo-6,12-dihydroindolo[2,1-b]quinazolin-3-yl)piperazine-1-carboxylate] | ≥ 5
O=C1c2cc(I)ccc2-n2c1nc1c(Br)cc(Br)c(F)c1c2=O [Compound 1013, 2,4-dibromo-1-fluoro-8-iodoindolo[2,1-b]quinazoline-6,12-dione] | ≤ 1.5
O=C1c2cc(I)ccc2-n2c1nc1c(Br)cc(Br)c(Cl)c1c2=O [Compound 1014, 2,4-dibromo-1-chloro-8-iodoindolo[2,1-b]quinazoline-6,12-dione] | ≤ 1.5
O=C1c2ccccc2-n2c1nc1c(Br)cc(Br)c(F)c1c2=O [Compound 1015, 2,4-dibromo-1-fluoroindolo[2,1-b]quinazoline-6,12-dione] | ≤ 1.5
O=C1c2cc(Cl)ccc2-n2c1nc1ccc(I)cc1c2=O [Compound 1016, 8-chloro-2-iodoindolo[2,1-b]quinazoline-6,12-dione] | ≤ 1.5
O=C1c2cc(Cl)ccc2-n2c1nc1cc(F)ccc1c2=O [Compound 1017, 8-chloro-3-fluoroindolo[2,1-b]quinazoline-6,12-dione] | ≤ 1.5
O=C1c2cc(Cl)ccc2-n2c1nc1cc(N3CCCCC3)ccc1c2=O [Compound 1018, 8-chloro-3-piperidin-1-ylindolo[2,1-b]quinazoline-6,12-dione] | ≥ 5
O=C1c2cc(F)ccc2-n2c1nc1c(O)cccc1c2=O [Compound 1019, 8-fluoro-4-hydroxyindolo[2,1-b]quinazoline-6,12-dione] | ≤ 1.5
CCNC(=O)c1ccc2c(c1)C(=O)c1nc3c(OC)cccc3c(=O)n1-2 [Compound 1020, N-ethyl-4-(methyloxy)-6,12-dioxo-6,12-dihydroindolo[2,1-b]quinazoline-8-carboxamide] | ≤ 1.5
O=C1c2cc(OC(F)(F)F)ccc2-n2c1nc1ccccc1c2=O [Compound 1021, 8-[(trifluoromethyl)oxy]indol o[2,1-b]quinazoline-6,12-dione] | ≥ 5

Compound | minimal effective concentration [µM]
O=C1c2cc(OC(F)(F)F)ccc2-n2c1nc1cc(F)ccc1c2=O [Compound 1022, 3-fluoro-8-[(trifluoromethyl)oxy]indol o[2,1-b]quinazoline-6,12-dione] | ≤ 1.5
O=C1c2cc(OC(F)(F)F)ccc2-n2c1nc1cc(SCCO)ccc1c2=O [Compound 1023, 3-[(2-hydroxyethyl)thio]-8-[(trifluoromethyl)oxy]indol o[2,1-b]quinazoline-6,12-dione] | ≤ 1.5
O=C1c2ccccc2-n2c1nc1ncccc1c2=O [Compound 1024, pyrido[2′,3′:4,5]pyrimido[1,2-a]indole-5,11-dione] | ≤ 1.5
O=C1c2cc(F)ccc2-n2c1nc1ncccc1c2=O [Compound 1025, 9-fluoropyrido[2′,3′:4,5]pyri-mido[1,2-a]indole-5,11-dione] | ≤ 1.5
O=C1c2cc(Br)ccc2-n2c1nc1ncccc1c2=O [Compound 1026, 9-bromopyrido[2′,3′:4,5]pyri-mido[1,2-a]indole-5,11-dione] | ≤ 1.5
O=C1c2cc(Cl)ccc2-n2c1nc1ncccc1c2=O [Compound 1027, 9-chloropyrido[2′,3′:4,5]pyri-mido[1,2-a]indole-5,11-dione] | ≤ 1.5
O=C1c2cc(I)ccc2-n2c1nc1ncccc1c2=O [Compound 1028, 9-iodopyrido[2′,3′:4,5]pyrimi-do[1,2-a]indole-5,11-dione] | ≤ 1.5
CCOC(=O)c1ccc2c(c1)C(=O)c1nc3ncccc3c(=O)n1-2 [Compound 1029, ethyl 5,11-dioxo-5,11-dihydropyrido[2′,3′:4,5]py-rimido[1,2-a]indole-9-carboxylate] | ≤ 1.5
CCCCCCCCNS(=O)(=O)c1ccc2c(c1)C(=O)c1nc3ncccc3c(=O)n1-2 [Compound 1030, N-octyl-5,11-dioxo-5,11-dihydropyrido[2′,3′:4,5]py-rimido[1,2-a]indole-9-sulfonamide] | ≤ 1.5
O=C1c2c(cccc2C(F)(F)F)-n2c1nc1ncccc1c2=O [Compound 1031, 10-(trifluoromethyl)pyrido[2′, 3′:4,5]pyrimido[1,2-a]indole-5,11-dione] | ≤ 1.5
CCOP(=O)(CCCC/C=C/c1ccc2c(c1)C(=O)c1nc3ncccc3c(=O)n1-2)OCC [Compound 1032, diethyl (5E)-6-(5,11-dioxo-5,11-dihydropyrido[2′,3′:4,5]py-rimido[1,2-a]indol-9-yl)hex-5-enylphosphonate] | ≥ 5
CC(=O)OCCCC/C=C/c1ccc2c(c1)C(=O)c1nc3ncccc3c(=O)n1-2 [Compound 1033, (5E)-6-(5,11-dioxo-5,11-dihydropyrido[2′,3′:4,5]py-rimido[1,2-a]indol-9-yl)hex-5-enyl acetate] | ≤ 1.5
O=C1c2cc(C(F)(F)F)ccc2-n2c1nc1ncccc1c2=O [Compound 1034, 9-(trifluoromethyl)pyrido[2′, 3′:4,5]pyrimido[1,2-a]indole-5,11-dione] | ≥ 5
O=C1c2cc(CCCCCCOP(=O)(O)O)ccc2-n2c1nc1ncccc1c2=O [Compound 1035, 6-(5,11-dioxo-5,11-dihydropyrido[2′,3′:4,5]py-rimido[1,2-a]indol-9-yl)hexyl dihydrogen phosphate] | ≤ 1.5
O=C1c2cc(OC(F)(F)F)ccc2-n2c1nc1ncccc1c2=O [Compound 1036, 9-[(trifluoromethyl)oxy]pyri-do[2′,3′:4,5]pyrimido[1,2-a]indole-5,11-dione] | ≤ 1.5
O=C1c2ccccc2-n2c1nc1ccccc1c2=O [Compound 1037, indolo[2,1-b]quinazoline-6,12-dione] | ≥ 20
O=C1c2cc(Cl)ccc2-n2c1nc1ccccc1c2=O [Compound 1038, 8-chloroindolo[2,1-b]quinazoline-6,12-dione] | ≥ 20
CCOC(=O)c1ccc2c(c1)C(=O)c1nc3ccccc3c(=O)n1-2 [Compound 1039, ethyl 6,12-dioxo-6,12-dihydroindolo[2,1-b]quinazoline-8-carboxylate] | ≥ 20
O=C1c2cc(I)ccc2-n2c1nc1c(O)cccc1c2=O [Compound 1040, 4-hydroxy-8-iodoindolo[2,1-b]quinazoline-6,12-dione] | ≥ 20
O=C1c2cc(I)ccc2-n2c1nc1c(Cl)cc(Cl)cc1c2=O [Compound 1041, 2,4-dichloro-8-iodoindolo[2,1-b]quinazoline-6,12-dione] | ≥ 20
